According to patent US10294202B2, “Pyrrolidinones as herbicides” (FMC Corporation, priority 2013, dated 2019):
“And” between values parts separate entries of the source, which are not always exact repeats. Equal values may be shown once.

Columns and labels:
corn (ZEAMD) = assay: Test H preemergence mixture test (Colby); assay type: in vivo, Zea mays; conditions: Mesotrione alone 16 g a.i./ha, 21 d after treatment, scale 0 to 100
Source text: (§1) Colby's Equation was used to determine the herbicidal effects expected from the mixtures. Colby's Equation (Colby, S. R. “Calculating Synergistic and Antagonistic Responses of Herbicide Combinations,” Weeds, 15(1), pp 20-22 (1967)) calculates the expected additive effect of herbicidal mixtures and for two active ingredients is of the form: Pa+b=Pa+Pb−(PaPb/100)
(§2) where • Pa+b is the percentage effect of the mixture expected from additive contribution of the individual components: • Pa is the observed percentage effect of the first active ingredient at the same use rate as in the mixture, and • Pb is the observed percentage effect of the second active ingredient at the same use rate as in the mixture. In the following Tables, rates are shown in grams of active ingredient per hectare (g a.i./ha); “Obsd.” is the observed effect. “Exp.” is the expected effect calculated from Colby's Equation.
(§3) This test evaluated the effect of mixtures of compound 80 with several commercial herbicides on four plant species. Seeds of plant species selected from corn (ZEAMD, Zea mays), soybean (GLXMA, Glycine max), waterhemp (common waterhemp, AMATA, Amaranthus rudis), and giant foxtail (SETFA, Setaria faberii) were planted into a silt loam soil and treated preemergence with test chemicals formulated in a non-phytotoxic solvent mixture which included a surfactant and applied using a volume of 281 L/ha. Each treatment was replicated three times. Treated plants and controls were maintained in a greenhouse using supplemental lighting to maintain a photoperiod of about 16 h; daytime and nighttime temperatures were about 24-30° C. and 19-21° C., respectively. Nutrients were applied using a balanced fertilizer applied through the watering system. At 21 d after treatment, all species were compared to controls and visually evaluated. Plant response ratings were calculated as the means of the three replicates, are summarized in Tables H1 through H5, and are based on a scale of 0 to 100 where 0 is no effect and 100 is complete control. A dash (-) response means no test result. The Expected (Exp.) results were calculated using Colby's Equation as described for Test G above.

soybean (GLXMA) = assay: Test H preemergence mixture test (Colby); assay type: in vivo, Glycine max; conditions: Mesotrione alone 16 g a.i./ha, 21 d after treatment, scale 0 to 100
Source text: as §1, §2, §3

waterhemp (AMATA) = assay: Test H preemergence mixture test (Colby); assay type: in vivo, Amaranthus rudis; conditions: Mesotrione alone 16 g a.i./ha, 21 d after treatment, scale 0 to 100
Source text: as §1, §2, §3

giant foxtail (SETFA) = assay: Test H preemergence mixture test (Colby); assay type: in vivo, Setaria faberii; conditions: Mesotrione alone 16 g a.i./ha, 21 d after treatment, scale 0 to 100
Source text: as §1, §2, §3

[1] = test system: small-flower umbrella sedge (CYPDI); assay: Test G paddy mixture test (Colby); assay type: in vivo, Cyperus difformis; conditions: applied alone, 14 d; for CYPDI Obsd.: scale 0-100
In short: (§4)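 Weeds sown in Tama soil tubs; barnyardgrass and transplanted japonica rice grown in plug flats. Treated at 2.0–2.5 leaf stage; visual rating 0–100 versus controls after 14 d in greenhouse. Expected mixture effect calculated with Colby's equation; rates in g a.i. per area.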

ducksalad (HETLI) = assay: Test G paddy mixture test (Colby); assay type: in vivo, Heteranthera limosa; conditions: applied alone, 14 d; for HETLI Obsd.: scale 0-100
Experimental: (§5) Seeds of small-flower umbrella […], Cyperus difformis) and […], Heteranthera limosa) were sown on the soil surface in two separate quadrants of 11-cm (4-inch) tubs filled with steam pasteurized Tama soil. Simultaneously, plantings of […], Echinochloa crus-galli) and transplanted japonica rice (ORYSA, Oryza sativa) were established in separate “plug” flats. […] Herbicide application timing was targeted at the 2.0 to 2.5 leaf stage and the plants were treated with test chemicals formulated in a non-phytotoxic solvent. Treated plants and controls were maintained in a greenhouse for 14 d, after which time all species were compared to controls and visually evaluated. Plant response ratings are summarized in Tables G1 through G12, and are based on a scale of 0 to 100 where 0 is no effect and 100 is complete control. A dash (-) response means no test result. Colby's Equation was used to determine the herbicidal effects expected from the mixtures. Colby's Equation (Colby, S. R. “Calculating Synergistic and Antagonistic Responses of Herbicide Combinations,” Weeds, 15(1), pp 20-22 (1967)) calculates the expected additive effect of herbicidal mixtures and for two active ingredients is of the form: Pa+b=Pa+Pb-(PaPb/100) where • Pa+b is the percentage effect of the mixture expected from additive contribution of the individual components: • Pa is the observed percentage effect of the first active ingredient at the same use rate as in the mixture, and • Pb is the observed percentage effect of the second active ingredient at the same use rate as in the mixture. In the following Tables, rates are shown in grams of active ingredient per […]); “Obsd.” is the observed effect. “Exp.” is the expected effect calculated from Colby's Equation.

[2] = test system: transplanted japonica rice (ORYSA); assay: Test G paddy mixture test (Colby); assay type: in vivo, Oryza sativa; conditions: applied alone, 14 d; for ORYSA Obsd.: scale 0-100
Experimental: as §5

barnyardgrass (ECHCG) = assay: Test G paddy mixture test (Colby); assay type: in vivo, Echinochloa crus-galli; conditions: applied alone, 14 d; for ECHCG Obsd.: scale 0-100
In short: as §4

With `CS(=O)(=O)c1ccc(C(=O)C2C(=O)CCCC2=O)c([N+](=O)[O-])c1` [Mesotrione, reference compound] the “Plant response rating, Obsd., ZEAMD” value (corn (ZEAMD)) was 12, the “Plant response rating, Obsd., GLXMA” value (soybean (GLXMA)) was 25 and the “Plant response rating, Obsd., AMATA” value (waterhemp (AMATA)) was 96. For the same compound, the “Plant response rating, Obsd., SETFA” value (giant foxtail (SETFA)) was 0.
In the case of `CS(=O)(=O)c1ccc(C(=O)C2C(=O)CCCC2=O)c(Cl)c1COCC1CCCO1` (stereo not shown) [Tefuryltrione], the “CYPDI Obsd.” value ([1]; 100 g a.i./ha) is reported as 90, the “CYPDI Obsd. plant response rating (scale 0 to 100)” value ([1]; 100 g a.i./ha, flooded) is reported as 100 and the “HETLI Obsd.” value (ducksalad (HETLI); 100 g a.i./ha) is reported as 90. For the same compound, the “HETLI Obsd. plant response rating (scale 0 to 100)” value (ducksalad (HETLI); 100 g a.i./ha, flooded) was 100, the “ORYSA Obsd.” value ([2]; 100 g a.i./ha) was 0 and the “ORYSA Obsd. plant response rating (scale 0 to 100)” value ([2]; 100 g a.i./ha, flooded) was 0. The “ECHCG Obsd.” value (barnyardgrass (ECHCG); 100 g a.i./ha) was 0 and the “ECHCG Obsd. plant response rating (scale 0 to 100)” value (barnyardgrass (ECHCG); 100 g a.i./ha, flooded) was 40.
In the case of `COc1nc(OC)nc(C(=O)c2cccc(F)c2N(C)S(=O)(=O)C(F)F)n1` [Triafamone, N-[2-[(4,6-dimethoxy-1,3,5-triazin-2-yl)carbonyl]-6-fluorophenyl]-1,1-difluoro-N-methylmethanesulfonamide], the “CYPDI Obsd.” value ([1]; 20 g a.i./ha) is reported as 0, the “HETLI Obsd.” value (ducksalad (HETLI); 20 g a.i./ha) is reported as 0 and the “ORYSA Obsd.” value ([2]; 20 g a.i./ha) is reported as 0. The “ECHCG Obsd.” value (barnyardgrass (ECHCG); 20 g a.i./ha) was 90 and 85.
